Measurements: patent publication US5939527A, “Tetrapeptides as antitumor agents” (BASF Aktiengesellschaft, priority 1996, dated 1999)

What was measured:
[1] = test system: four different human lymphoma cell lines; conditions: cited from earlier work
[2] = synthetic Dolastatin 10; cited from earlier work
[3] = test system: HT-29 colon carcinoma cells; format: cell-based; conditions: HT-29 cells, 48 hours incubation, MTT; read-out: IC50 (concentration giving a T/C of 50% growth inhibition)
[4] = test system: Human breast tumors (MX-1); assay: In vivo activity, MX-1 human breast tumor xenograft in athymic nude mice; conditions: subcutaneous injection, 10, 20 or 30 mg/kg, three doses per week, days 5-23
Description: Compounds of this invention were further tested in pre-clinical assays for in vivo activity which is indicative of clinical utility. Such assays were conducted with nude mice into which tumor tissue, preferably of human origin, had been transplanted (xenografted), as is well known in this field. Test compounds were evaluated for anti-tumor efficacy following administration to the xenograft-bearing mice.
Human breast tumors (MX-1) which had been grown in athymic nude mice were transplanted into new recipient mice, using tumor fragments which were about 50 mg in size. The day of transplantation was designated as day 0. The mice were divided into four groups of 5-10 mice each. An untreated group served as the control. Three groups were treated by subcutaneous injection of compound 1, with each group receiving three doses per week of 30, 20 or 10 mg/kg body weight. Doses were administered on days 5, 7, 9, 12, 14, 16, 19, 21 and 23 post post-implantation.
Tumor diameters and body weights were measured twice weekly. Tumor volumes were calculated using the diameters measured with Vernier calipers, and the formula
(length×width^2)/2=mm^3 of tumor volume
Mean tumor volumes are calculated for each treatment group, and T/C values determined for each group relative to the untreated control tumors.

[5] = test system: P388 lymphocytic leukemia (PS system) cell line; conditions: cited from earlier work

Compound: Dolastatin 10
- inhibition of growth of human lymphoma cell lines [1]: effectively inhibit
- solubility in aqueous systems [2]: poor solubility

Compound: CO[C@H](CC(=O)N1CCC[C@H]1C(=O)Nc1nccs1)[C@H](C(C)C)N(C)C(=O)[C@@H](NC(=O)[C@H](C(C)C)N(C)C)C(C)C [Compound 1, (3R,4S)-4-[N-(N,N-dimethyl-L-valyl-L-valyl)-N-methylamino]-3-methoxy-5-methyl-hexanoyl prolyl-thiazolyl(2)-amide]
- IC50 [3]: 0.06 µM
- inhibition of tumor growth (tumor volume versus post-implantation time) [4]: significant dose-dependent inhibition of tumor growth

Compound: Dolastatin 15
- inhibition of growth of human lymphoma cell lines [1]: effectively inhibit
- growth inhibition of P388 cell line [5]: inhibits the growth
